From PubChem BioAssay AID588620 (NMMLSC, 2011) come the findings set out here.

Molecules are shown by their SMILES. Several values for one entry are separate records, joined by “and”; a condition that tells them apart may be missing. Identical values can stand only once. Activity calls are given as the source filed them.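 The calls were made as follows: active = fitted half-maximal concentration below 30 µM for cell fluorescence in pump-free yeast, so likely self-fluorescent; inactive = the rest.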

The assay is described as follows: concentration-dependent intrinsic compound fluorescence, S. cerevisiae AD/pABC3, flow cytometry, Cherry Pick1 hits, artefact control for antifungal efflux pump inhibitor project, dose response (AID 588620).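 Also: red emission of unstained cells excited at 488 nm measured in PE-Texas Red channel; cell median fluorescence as percent of DMSO wells so 100% equals vehicle baseline.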 As to conditions: S. cerevisiae AD/pABC3 compound autofluorescence, flow cytometry; at 33.1 µM (top of the series).
Consider `Cc1ccc(-c2cc(C(=O)Nc3ccc(S(=O)(=O)Nc4ncccn4)cc3)c3ccccc3n2)cc1`, for which the fluorescence response, % of control is 96.3% (inactive).
The figure for `COc1ccc(-c2sc3cc(OC)ccc3c2-c2ccc(OCCN3CCOCC3)cc2)cc1` is 153% (inactive); for `COc1ccc(Cn2c(-c3ccccc3)nc3c(c(=O)c4ccccc4n3C)c2=O)cc1` it is 102% (inactive); for `C[C@H](CO)N1C[C@H](C)[C@@H](CN(C)S(=O)(=O)c2cccs2)Oc2c(NC(=O)Nc3ccc4c(c3)OCO4)cccc2C1=O` it is 96.9% (inactive).
With `Cc1ccc(Cn2nnc3c(=O)[nH]c(C4CCN(S(=O)(=O)c5ccc(F)cc5)CC4)nc32)cc1` the figure was 116% (inactive).
With `Cc1cccc(NC(=O)c2nc[nH]c2C(=O)N[C@H](C)c2ccccc2)c1` the figure was 92.4% (inactive); with `O=C1C(Cc2cccc([N+](=O)[O-])c2)SC(=Nc2ccccc2)N1c1ccccc1` (configuration not stated), 116% (inactive); with `c1ccc(-c2ccc3c(c2)c2c4n3CCN=C4CCC2)cc1`, 138% (inactive).
For the compound `CCOC(=O)c1ccc(S(=O)(=O)NNS(=O)(=O)c2ccc(C)cc2)cc1`, the fluorescence response, % of control is 112% (inactive).
The figure for `COc1ccc(C(=O)NC2CC(C)(C)Cc3c2cnn3-c2ccccc2)c(OC)c1` (configuration not stated) is 115% (inactive); for `N#CCCN1CCN(C(=S)c2ccc(-c3ccc(Cl)c(Cl)c3)o2)CC1` it is 75.6% (inactive).
With `COc1ccc(/C=c2\s/c(=C/C(=O)c3ccc(C)cc3)[nH]c2=O)c(OC)c1` the figure was 98.7% (inactive); with `CC(C)=C1C2CCC1C1C(=O)N(c3nc(-c4ccc(C(C)C)cc4)c(C)s3)C(=O)C21` (configuration not stated), 111% (inactive); with `O=c1[nH]c(C2CCN(S(=O)(=O)c3ccccc3C(F)(F)F)CC2)nc2c1nnn2Cc1ccccc1`, 92.4% (inactive).
The figure for `Cc1ccc(CNC(=O)CCCn2nc(C)c3c(C)n(-c4ccccc4)nc3c2=O)cc1` is 93.6% (inactive).
On to `O=C(COC(=O)c1ccc(Cl)cc1O)NCCN1C(=O)CSC1=O`, for which the fluorescence response, % of control is 88.6% (inactive).
Regarding `O=C1C(Cl)=C(Nc2ccc3cn[nH]c3c2)C(=O)c2ccccc21`, the fluorescence response, % of control is 145% (inactive).
As to `O=C(CSc1nc2nc3c(cc2c(=O)n1-c1ccccc1)CCCC3)Nc1cccc2ccccc12`, the fluorescence response, % of control is 101% (inactive).
Regarding `COc1cccc(-c2sc3ccc(OC)cc3c2-c2ccc(OCCN(C)C)cc2)c1`, the fluorescence response, % of control was 126% (inactive).
For the compound `COc1ccc(-c2sc3ccccc3c2-c2ccc(OCCN(C)C)cc2)cc1`, the fluorescence response, % of control is 112% (inactive).
As for `Cc1ccc(CCNC(=O)CCCn2nc(C)c3c(C)n(-c4ccc(C)cc4)nc3c2=O)cc1`, the fluorescence response, % of control was 101% (inactive).
The figure for `Nc1cc2c(cc1C(=O)c1cccc(Br)c1)OCCO2` is 92.7% (inactive); for `O=C(CSc1nnc(Cc2cccs2)n1Cc1ccco1)Nc1ccc(Br)cc1` it is 86% (inactive); for `Cc1ccc(CNC(=O)C(=O)NCC2OCCN2S(=O)(=O)c2ccc(Br)cc2)cc1` (configuration not stated) it is 88.1% (inactive).
In the case of `Cc1ccc(O)c(C(=O)c2cnc3c(c2)CN(CCC(C)C)C(=O)N3)c1`, the fluorescence response, % of control is 102% (inactive).
`COc1cccc(-c2sc3ccc(OC)cc3c2-c2ccc(OCCN3CCCCC3)cc2)c1`: the fluorescence response, % of control was 102% (inactive).
With `Cc1ccc(OCc2cc(C(=O)NCC(C)(C)N3CCOCC3)no2)cc1C` the figure was 116% (inactive); with `COc1cccc(-c2sc3ccc(OC)cc3c2-c2ccc(OCCN3CCOCC3)cc2)c1`, 92.4% (inactive); with `COc1ccc(-n2ncc3c2CC(C)(C)CC3NC(=O)c2cnc(C)cn2)cc1` (configuration not stated), 99.3% (inactive).
For the compound `O=C(NC(=S)Nc1ccc2[nH]c(=O)[nH]c2c1)c1cncc(Br)c1`, the fluorescence response, % of control was 102% (inactive).
The figure for `O=S(=O)(Nc1cc(Sc2ncn[nH]2)c(O)c2ccccc12)c1ccccc1` is 140% (inactive).
The figure for `Cc1ccc(/C=c2\sc3nc(-c4cccs4)nn3c2=O)o1` is 118% (inactive); for `O=C(O)Cc1ccc(NC(=O)c2ccc(NC(=O)c3ccco3)cc2)cc1` it is 109% (inactive); for `O=C(C[n+]1cc(-c2ccc(Cl)c(Cl)c2)n2c1CCC2)N1c2ccccc2Sc2ccccc21` it is 92.7% (inactive).
With `Cc1ccc(C(=O)N2CCC3(CC2)Oc2ccc(Cl)cc2C(=O)C32CC(c3ccccc3)=NO2)s1` (configuration not stated) the figure was 105% (inactive); with `CCC(=O)NC(c1ccco1)c1cc(Cl)c2cccnc2c1O` (configuration not stated), 99.8% (inactive); with `Cc1c2ccncc2c(C)c2c1[nH]c1ccccc12`, 132% (inactive) and 1000% (inactive).
For `CC1Cc2cc(S(=O)(=O)NCc3ccccc3)ccc2N1C(=O)C1CCC1` (configuration not stated), the fluorescence response, % of control was 89% (inactive).
The figure for `CS(=O)(=O)Nc1ccc(C(=O)Nc2ccc3c(c2)OCCO3)cc1` is 95.7% (inactive); for `O=C1Nc2ccccc2/C1=C/c1cnc(-c2ccccc2)[nH]1` it is 128% (inactive); for `COc1cc(/C=C2/CC/C(=C/c3ccc(O)c(OC)c3)C2=O)ccc1O` it is 347% (inactive).
As to `Clc1ccc(C(c2ccc(Cl)cc2)n2cc[n+](CC(OCc3ccc(Cl)cc3Cl)c3ccc(Cl)cc3Cl)c2)cc1` (configuration not stated), the fluorescence response, % of control is 112% (inactive).
With `Cc1cccc(C)c1-n1c(SCC(=O)N2CC(=O)Nc3ccccc32)nc2ccccc2c1=O` the figure was 118% (inactive).
`Cc1sc2ncnc(SC(C)C(=O)N3c4ccccc4Sc4ccccc43)c2c1C` (configuration not stated): the fluorescence response, % of control was 126% (inactive).
Turning to `Cc1nnc(N/N=C/c2cc([N+](=O)[O-])c(N3CCC(C)CC3)cc2N2CCC(C)CC2)n1N`, the fluorescence response, % of control was 97.1% (inactive).
The figure for `C[C@@]12C(=O)Nc3ccc(Cl)cc3C(=O)N1[C@H]1c3cc(Cl)ccc3OC[C@@H]1[C@@H]2c1ccccc1` is 103% (inactive).
The figure for `COCCCn1c(=S)[nH]c2ccc(N3CCOCC3)cc2c1=O` is 105% (inactive); for `O=C(C1CCC1)N1CCc2cc(S(=O)(=O)Nc3ccc4c(c3)OCCO4)ccc21` it is 116% (inactive).
With `O=C(Nc1ccc(NC(=O)c2cccs2)cc1)c1ccc2ccccc2c1` the figure was 125% (inactive); with `CCOC(=O)c1ccc(-c2cc(C)no2)[nH]1`, 99.8% (inactive).
In the case of `Cc1ccc(C)c(N2CCN(C(=O)C3CCCN(c4ncnc5c4nc4n5CCCCC4)C3)CC2)c1` (configuration not stated), the fluorescence response, % of control was 89.1% (inactive).
In the case of `COc1ccc(CN2C(=O)C(C)Nc3ncnc(N4CCN(c5ccccc5)CC4)c32)cc1` (configuration not stated), the fluorescence response, % of control is 106% (inactive).
